Results: ChEMBL document CHEMBL1255349, “Comparison of the efficacies of oral beta-lactams in selection of Haemophilus influenzae transformants with mutated ftsI genes” (2008)
In brackets after ≈: the same amount, converted by molar mass.

How the values were obtained:
Type in all cases: functional
Haemophilus influenzae [1] = assay: Antimicrobial activity against beta lactamase-nonproducing ampicillin-resistant Haemophilus influenzae MSC06663 isolate harboring Met377Ile, Ser385Thr and Asn526Lys mutations in penicillin-binding protein 3 by broth dilution method
Haemophilus influenzae [2] = assay: Antimicrobial activity against rifampin-resistant Haemophilus influenzae Rd clone by broth dilution method
Haemophilus influenzae [3] = assay: Antimicrobial activity against beta lactamase-nonproducing ampicillin-resistant Haemophilus influenzae MSC06647 isolate harboring Asn526Lys mutation in penicillin-binding protein 3 by broth dilution method

Compound	MIC (Haemophilus influenzae [1]) [µg/mL]	MIC (Haemophilus influenzae [2]) [µg/mL]	MIC (Haemophilus influenzae [3]) [µg/mL]
C[C@@H](O)[C@H]1C(=O)N2C(C(=O)O)=C(SC3CN(C4=NCCS4)C3)[C@H](C)[C@H]12 [TEBIPENEM]	0.25 (≈ 0.652 µM)	0.06 (≈ 0.156 µM)	1 (≈ 2.61 µM)
CC/C=C(\C(=O)N[C@@H]1C(=O)N2C(C(=O)O)=C(COC(N)=O)CS[C@H]12)c1csc(N)n1 [CEFCAPENE]	2 (≈ 4.41 µM)	0.008 (≈ 0.0176 µM)	0.25 (≈ 0.551 µM)
COCC1=C(C(=O)O)N2C(=O)[C@@H](NC(=O)/C(=N\OC)c3csc(N)n3)[C@H]2SC1 [CEFPODOXIME]	8 (≈ 18.7 µM)	0.03 (≈ 0.0702 µM)	1 (≈ 2.34 µM)
CC1(C)S[C@@H]2[C@H](NC(=O)[C@H](N)c3ccc(O)cc3)C(=O)N2[C@H]1C(=O)O [AMOXICILLIN]	1 (≈ 2.74 µM)	0.5 (≈ 1.37 µM)	4 (≈ 10.9 µM)
CC1(C)S[C@@H]2[C@H](NC(=O)[C@H](N)c3ccccc3)C(=O)N2[C@H]1C(=O)O [AMPICILLIN]	1 (≈ 2.86 µM)	0.25 (≈ 0.715 µM)	2 (≈ 5.72 µM)
CC=CC1=C(C(=O)O)N2C(=O)[C@@H](NC(=O)[C@H](N)c3ccc(O)cc3)[C@H]2SC1 [CEFPROZIL]	4 (≈ 10.3 µM)	2 (≈ 5.14 µM)	4 (≈ 10.3 µM)
C=CC1=C(C(=O)O)N2C(=O)[C@@H](NC(=O)/C(=N\O)c3csc(N)n3)[C@H]2SC1 [CEFDINIR]	2 (≈ 5.06 µM)	0.25 (≈ 0.632 µM)	1 (≈ 2.53 µM)
CO/N=C(\C(=O)N[C@@H]1C(=O)N2C(C(=O)O)=C(COC(N)=O)CS[C@H]12)c1ccco1 [CEFUROXIME]	2 (≈ 4.71 µM)	0.5 (≈ 1.18 µM)	2 (≈ 4.71 µM)
CO/N=C(\C(=O)N[C@@H]1C(=O)N2C(C(=O)OCOC(=O)C(C)(C)C)=C(/C=C\c3scnc3C)CS[C@H]12)c1csc(N)n1 [CEFDITOREN PIVOXIL]	0.5 (≈ 0.805 µM)	0.008 (≈ 0.0129 µM)	0.06 (≈ 0.0967 µM)
